Results published in patent US8652840B2, “Method for obtaining female germline stem cells and uses thereof” (The General Hospital Corporation, priority 2004, dated 2014).
Like-named read-outs stand apart in the source and are kept apart here.

Assays:
[1] = system: oocyte-containing follicles; assay: In-vivo HDAC suppression with Trichostatin A, counts of oocyte-containing follicles; design: species or system mice
Source text: (§1) Age-specified or timed-pregnant wild-type C57BL/6 and CD1 female mice were obtained from Charles River Laboratories, whereas AKR/J mice were obtained from Jackson Laboratories. Ovaries were fixed in 0.34N glacial acetic acid, 10% formalin, and 28% ethanol, paraffin embedded, and serially sectioned (8 μm). The sections were aligned in order on glass microscope slides, and stained with hematoxylin and picric methyl blue. The number of non-atretic or atretic primordial, primary, and preantral follicles was then determined. Primordial follicles were identified as having a compact oocyte surrounded by a single layer of flattened granulosa cells, while primary follicles were identified as having an enlarged oocyte surrounded by a single layer of cuboidal granulosa cells. Intermediate-stage follicles (compact or enlarged oocyte with a single layer of mixed flattened and cuboidal granulosa cells) were scored as primary. Preantral follicles were identified as having an enlarged oocyte surrounded by at least a partial or complete second layer of cuboidal granulosa cells, but no more than four complete layers of cuboidal granulosa cells. Only those follicles containing an oocyte with a clearly visible nucleus were scored. Follicles at the primordial, primary and preantral (immature) stages of development were scored as atretic if the oocyte was degenerating (convoluted, condensed) or fragmented. Grossly atretic follicles lacking oocyte remnants were not included in the analyses. Given that this procedure sampled one-fifth of the entire ovarian volume, the total number of follicles per ovary (healthy or atretic) was then estimated by multiplying the cumulative counts for each ovary by a correction factor of five (Zuckerman, S. (1951) Recent Prog. Horm. Res. 6: 63-108; Tilly, J. L. (2003) Reprod. Biol. Endocrinol. 1:1-11). A single trained ovarian histologist in a blinded fashion conducted all counts, and two other members of the group periodically evaluated random samples to verify accuracy and reproducibility of the data.
Animals were sacrificed 24 hours post-injection, histological preparations of ovaries were prepared, and oocyte-containing follicles were counted per standard laboratory procedures (see Example 1). Treatment with TSA caused a 53% increase in the number of total healthy immature oocyte-containing follicles per ovary when compared with ovaries of control mice given the vehicle treatment. Not only was the resting (primordial) pool of follicles increased by 42%, but also the number of early growing (primary) follicles was increased (FIG. 7c).

[2] = system: primordial and early growing follicles (oocytes); assay: Doxorubicin-synchronized oocyte death in adult female mice, germ cell dynamics; type: in vivo
Method: The existence of mammalian female germline stem cells implies an inherent capacity of the ovaries to generate, or regenerate following an insult, new stockpiles of resting (primordial) oocyte-containing follicles in a regulated fashion. To address this issue directly, adult female mice were injected with doxorubicin to synchronize oocyte death (Perez, G. I. et al, (1997) Nature Med. 3, 1228-32), and ovaries were collected at multiple intervals after drug exposure to assess germ cell dynamics.

ovarian function = conditions: cited from earlier work
primordial follicles = system: primordial follicles; design: species or system mice; conditions: mouse, in vivo
Source text: as §1, with “Given that this procedure sampled one-fifth of the entire ovarian volume, the total number of follicles per ovary (healthy or atretic) was then estimated by multiplying the cumulative counts for each ovary by a correction factor of five (Zuckerman, S. (1951) Recent Prog. Horm. Res. 6: 63-108; Tilly, J. L. (2003) Reprod. Biol. Endocrinol. 1:1-11).” left out, “data. […]” for “data.”
To clarify whether loss of primordial follicles observed in busulfan-treated females (FIG. 5a) results from toxicity to existing oocytes, ovaries were collected from female mice at multiple points during and after the busulfan dosing regimen described above, and they were analyzed for the incidence of primordial follicle atresia. […]

[3] = prepubertal female mice, single i.p. injection 10 mg/kg, 24 hours post-injection

SMILES: CC(/C=C/C(=O)NO)=C\[C@@H](C)C(=O)c1ccc(N(C)C)cc1 [TSA, Trichostatin A]
- increase in primordial follicle numbers ([1]; female mice at 240 days of age, within 24 h (data not shown)): 89%
- increase in healthy immature follicles (number) ([1]; prepubertal (13-day old) female mice, 10 mg/kg, 24 hours): more than 1,600
- increase in the number of total healthy immature oocyte-containing follicles per ovary versus vehicle [1, 3]: 53%
- increase of the resting (primordial) pool of follicles [1, 3]: 42%
- number of early growing (primary) follicles [1, 3]: increased

SMILES: COc1cccc2c1C(=O)c1c(O)c3c(c(O)c1C2=O)C[C@@](O)(C(=O)CO)C[C@@H]3O[C@H]1C[C@H](N)[C@H](O)[C@H](C)O1 [doxorubicin]
- primordial and total immature follicle pools ([2]; between 24 and 36 h post-treatment (data not shown)): spontaneous regeneration
- primordial and early growing follicles (oocytes) ([2]; within the first 24 h after treatment (data not shown)): rapid and extensive loss

SMILES: CS(=O)(=O)OCCCCOS(C)(=O)=O [busulfan]
- POF, cases of patients (ovarian function; in vivo): 19 of 19
- hypogonadism indicative of premature ovarian failure (POF), cases of patients (ovarian function; in vivo): 20 of 21
- ovarian damage requiring hormonal replacement, cases of patients (ovarian function; in vivo): 4 of 4
- plateau number of atretic primordial follicles (primordial follicles; female, 20 mg/kg, 5 days): 46 per ovary
- reduction in the resting (primordial) oocyte pool (primordial follicles; female, 3 weeks): 95%
- ratio of primordial to primary follicles, busulfan versus vehicle (primordial follicles): No significant change

SMILES: O=P1(N(CCCl)CCCl)NCCCO1 (centres unmarked) [cyclophosphamide]
- POF, cases of patients (ovarian function; Grigg et al. 2000: both agents ages 14-57, median=38, cyclophosphamide alone ages 13-58, median=28): 47 of 103
